Our source for the IC50 values is BindingDB's records for patent US12209085 (Sunshine Lake Pharma Co., 2025).

What is called IC50 is the concentration that gives 50% inhibition. A low value points to greater potency.

What all share (assay): Inhibitory Activity Assay
Assay [1] concerns the target Coiled-coil domain-containing protein 6/Proto-oncogene tyrosine-protein kinase receptor Ret (Homo sapiens, UniProt P07949).
Assay [2] concerns the target Proto-oncogene tyrosine-protein kinase receptor Ret (Homo sapiens, UniProt P07949).
In assay [3] the target is Proto-oncogene tyrosine-protein kinase receptor Ret [M918T] (Homo sapiens, UniProt P07949, M918T).
Sequence of Proto-oncogene tyrosine-protein kinase receptor Ret [M918T] (P07949 29-1114 M918T limits assumed): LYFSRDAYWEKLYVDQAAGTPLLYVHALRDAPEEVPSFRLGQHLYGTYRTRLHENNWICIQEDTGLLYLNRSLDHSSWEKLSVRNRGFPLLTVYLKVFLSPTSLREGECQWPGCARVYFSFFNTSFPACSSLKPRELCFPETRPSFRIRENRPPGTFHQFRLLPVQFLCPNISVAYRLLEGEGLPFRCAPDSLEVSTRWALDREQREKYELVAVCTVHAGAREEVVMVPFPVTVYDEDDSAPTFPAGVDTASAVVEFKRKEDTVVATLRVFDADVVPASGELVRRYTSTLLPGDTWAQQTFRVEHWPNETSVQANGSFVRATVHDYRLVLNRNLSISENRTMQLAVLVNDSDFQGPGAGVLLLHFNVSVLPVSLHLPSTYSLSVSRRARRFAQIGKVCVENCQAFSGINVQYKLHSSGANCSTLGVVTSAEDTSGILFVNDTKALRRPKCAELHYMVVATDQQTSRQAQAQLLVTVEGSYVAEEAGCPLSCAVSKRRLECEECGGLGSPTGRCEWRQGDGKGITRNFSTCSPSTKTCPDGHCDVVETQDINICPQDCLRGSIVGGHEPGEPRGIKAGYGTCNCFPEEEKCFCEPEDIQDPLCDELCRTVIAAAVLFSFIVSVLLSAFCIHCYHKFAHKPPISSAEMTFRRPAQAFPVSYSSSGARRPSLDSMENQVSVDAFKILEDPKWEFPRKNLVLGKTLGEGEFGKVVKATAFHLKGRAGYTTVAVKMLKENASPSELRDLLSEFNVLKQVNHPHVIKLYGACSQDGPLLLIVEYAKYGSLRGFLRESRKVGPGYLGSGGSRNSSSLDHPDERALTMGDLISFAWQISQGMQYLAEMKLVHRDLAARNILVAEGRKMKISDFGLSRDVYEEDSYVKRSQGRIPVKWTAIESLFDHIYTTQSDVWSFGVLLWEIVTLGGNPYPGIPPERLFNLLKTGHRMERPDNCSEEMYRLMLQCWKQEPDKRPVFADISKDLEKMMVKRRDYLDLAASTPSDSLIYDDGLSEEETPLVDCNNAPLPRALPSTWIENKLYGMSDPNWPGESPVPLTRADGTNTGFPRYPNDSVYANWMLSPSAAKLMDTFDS
For assay [4], the target named is Proto-oncogene tyrosine-protein kinase receptor Ret [V804L] (Homo sapiens, UniProt P07949, V804L).
Sequence of Proto-oncogene tyrosine-protein kinase receptor Ret [V804L] (P07949 29-1114 V804L limits assumed): as the sequence (P07949 29-1114 M918T limits assumed) above, with V776L, T890M counted along it
Assay [5] deals with Proto-oncogene tyrosine-protein kinase receptor Ret [V804M] (Human, UniProt P07949, V804M).
Sequence of Proto-oncogene tyrosine-protein kinase receptor Ret [V804M] (P07949 29-1114 V804M limits assumed): as the sequence (P07949 29-1114 M918T limits assumed) above, with V776M, T890M counted along it

Sequence of Proto-oncogene tyrosine-protein kinase receptor Ret (P07949 whole entry): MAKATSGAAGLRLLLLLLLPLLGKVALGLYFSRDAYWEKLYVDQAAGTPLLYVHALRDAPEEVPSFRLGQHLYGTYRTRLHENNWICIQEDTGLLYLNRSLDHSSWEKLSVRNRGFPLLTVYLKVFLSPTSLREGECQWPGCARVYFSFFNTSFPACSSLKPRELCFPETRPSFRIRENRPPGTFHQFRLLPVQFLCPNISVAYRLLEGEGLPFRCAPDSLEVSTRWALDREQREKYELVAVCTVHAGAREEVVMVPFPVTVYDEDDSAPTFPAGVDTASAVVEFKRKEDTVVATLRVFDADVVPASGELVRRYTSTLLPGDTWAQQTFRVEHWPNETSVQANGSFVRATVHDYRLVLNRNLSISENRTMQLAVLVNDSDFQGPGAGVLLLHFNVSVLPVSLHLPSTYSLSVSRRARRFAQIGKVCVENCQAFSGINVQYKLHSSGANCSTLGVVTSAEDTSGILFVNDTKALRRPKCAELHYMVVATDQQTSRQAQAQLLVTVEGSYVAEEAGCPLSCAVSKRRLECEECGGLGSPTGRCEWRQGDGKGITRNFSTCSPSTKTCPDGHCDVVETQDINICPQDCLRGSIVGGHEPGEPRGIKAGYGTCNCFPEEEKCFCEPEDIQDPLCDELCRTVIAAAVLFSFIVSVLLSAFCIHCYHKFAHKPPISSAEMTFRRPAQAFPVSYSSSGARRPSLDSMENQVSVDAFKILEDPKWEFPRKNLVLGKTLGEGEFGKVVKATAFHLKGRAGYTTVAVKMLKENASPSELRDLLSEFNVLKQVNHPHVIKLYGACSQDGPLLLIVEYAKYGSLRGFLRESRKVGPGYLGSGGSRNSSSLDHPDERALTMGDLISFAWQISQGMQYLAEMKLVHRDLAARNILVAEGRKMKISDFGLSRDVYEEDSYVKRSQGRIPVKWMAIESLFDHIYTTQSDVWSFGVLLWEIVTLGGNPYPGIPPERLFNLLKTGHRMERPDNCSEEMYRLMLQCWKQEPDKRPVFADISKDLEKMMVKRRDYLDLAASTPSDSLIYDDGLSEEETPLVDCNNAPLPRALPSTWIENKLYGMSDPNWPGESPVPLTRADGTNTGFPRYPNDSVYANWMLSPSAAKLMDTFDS
Sequence of Coiled-coil domain-containing protein 6/Proto-oncogene tyrosine-protein kinase receptor Ret (P07949 whole entry, the tested form may be a part): as the sequence (P07949 whole entry) above
Sequence of Coiled-coil domain-containing protein 6/Proto-oncogene tyrosine-protein kinase receptor Ret (Q16204 whole entry, further chain, the tested form may be a part): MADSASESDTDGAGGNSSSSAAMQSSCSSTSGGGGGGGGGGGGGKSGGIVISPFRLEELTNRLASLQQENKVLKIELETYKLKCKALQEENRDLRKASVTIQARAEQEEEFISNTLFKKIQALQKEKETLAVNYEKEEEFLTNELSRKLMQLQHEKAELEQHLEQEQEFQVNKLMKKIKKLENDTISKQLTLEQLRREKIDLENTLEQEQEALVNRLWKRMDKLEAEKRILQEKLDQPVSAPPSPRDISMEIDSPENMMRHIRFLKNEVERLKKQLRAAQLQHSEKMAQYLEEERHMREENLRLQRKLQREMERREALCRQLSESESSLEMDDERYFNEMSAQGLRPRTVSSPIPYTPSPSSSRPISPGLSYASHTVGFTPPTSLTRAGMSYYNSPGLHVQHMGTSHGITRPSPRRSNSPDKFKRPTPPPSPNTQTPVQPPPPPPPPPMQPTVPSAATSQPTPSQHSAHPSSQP

As for `C#Cc1cccc(C(=O)NC2CCN(c3ccc(-c4cc(-c5cnn(C)c5)cn5ncc(C#N)c45)cn3)CC2)c1` [US12209085, Example 268], the IC50 in assay [1] worked out at 3.16 nM; in assay [2] it was 2.69 nM; in assay [3], 1.92 nM; in assay [4], 2.35 nM; in assay [5], 30.8 nM.
With `C#CC#CCN1C2CC1CN(c1ccc(-c3cc(-c4cnn(C)c4)cn4ncc(C#N)c34)cn1)C2` [US12209085, Example 276], the IC50 in assay [2] worked out at 0.39 nM; in assay [5], 1.08 nM.
On the same counts, the results for `C#Cc1ncc(CN2C3CC2CN(c2ccc(-c4cc(-c5cnn(C)c5)cn5ncc(C#N)c45)cn2)C3)cc1F` [US12209085, Example 227] are 0.13 nM and 0.3 nM.
Turning to `C#Cc1ccc(CN2C3CC2CN(c2ccc(-c4cc(-c5cnn(C)c5)cn5ncc(C#N)c45)cn2)C3)cn1` [US12209085, Example 186], the IC50 in assay [2] is 0.17 nM; in assay [5], 0.76 nM.
